Reference: the kinase profiling compilation of Christmann-Franck et al. (2016)

What was measured:
HIPK1 (human) = HIPK1 (human) (UniProt Q86Z02); assay: radiometric filter-binding kinase assay, Kinaseprofiler; conditions: compound 1.0 µM; ATP 45 µM
EPHA1 (human) = EPHA1 (human) (UniProt P21709); assay: as above; conditions: compound 1.0 µM; ATP 45 µM
CSNK2A2 (human) = CSNK2A2 (human) (UniProt P19784); assay: as above; conditions: compound 1.0 µM; ATP 10 µM
[1] = system: HIPK2 (human), Q9H2X6 [I471N]; assay: as above; conditions: compound 1.0 µM; ATP 10 µM
NTRK2 (human) = NTRK2 (human) (UniProt Q16620); assay: as above; conditions: compound 1.0 µM; ATP 90 µM
PRKCG (human) = PRKCG (human) (UniProt P05129); assay: as above; conditions: compound 1.0 µM; ATP 15 µM
CSK (human) = CSK (human) (UniProt P41240); assay: as above; conditions: compound 1.0 µM; ATP 15 µM
NEK11 (human) = NEK11 (human) (UniProt Q8NG66); assay: as above; conditions: compound 1.0 µM; ATP 200 µM
NEK3 (human) = NEK3 (human) (UniProt P51956); assay: as above; conditions: compound 1.0 µM; ATP 120 µM
DAPK1 (human) = DAPK1 (human) (UniProt P53355); assay: as above; conditions: compound 1.0 µM; ATP 70 µM
CDC42BPB (human) = CDC42BPB (human) (UniProt Q9Y5S2); assay: as above; conditions: compound 1.0 µM; ATP 10 µM
[2] = system: SGK1 (human), O00141 [S422D]; assay: as above; conditions: compound 1.0 µM; ATP 90 µM
BRSK1 (human) = BRSK1 (human) (UniProt Q8TDC3); assay: as above; conditions: compound 1.0 µM; ATP 200 µM
[3] = system: AURKA (human), O14965 [I31F]; assay: as above; conditions: compound 1.0 µM; ATP 15 µM
STK11 (human) = STK11 (human) (UniProt Q15831); assay: as above; conditions: compound 1.0 µM; ATP 155 µM
FER (human) = FER (human) (UniProt P16591); assay: as above; conditions: compound 1.0 µM; ATP 70 µM
CDK5 CDK5R1 p25 (human) = CDK5 CDK5R1 p25 (human) (UniProt Q00535+Q15078); assay: as above; conditions: compound 1.0 µM; ATP 15 µM
[4] = system: BRSK2 (human), Q8IWQ3 [S251I]; assay: as above; conditions: compound 1.0 µM; ATP 70 µM
MAPK3 (human) = MAPK3 (human) (UniProt P27361); assay: as above; conditions: compound 1.0 µM; ATP 70 µM
CDK7 CCNH MNAT1 (human) = CDK7 CCNH MNAT1 (human) (UniProt P50613+P51948+P51946); assay: as above; conditions: compound 1.0 µM; ATP 90 µM
NEK6 (human) = NEK6 (human) (UniProt Q9HC98); assay: as above; conditions: compound 1.0 µM; ATP 45 µM
IKBKB (human) = IKBKB (human) (UniProt O14920); assay: as above; conditions: compound 1.0 µM; ATP 10 µM
[5] = system: RPS6KB1 (human), P23443 [T412E]; assay: as above; conditions: compound 1.0 µM; ATP 15 µM
CDC42BPA (human) = CDC42BPA (human) (UniProt Q5VT25); assay: as above; conditions: compound 1.0 µM; ATP 45 µM
EPHA3 (human) = EPHA3 (human) (UniProt P29320); assay: as above; conditions: compound 1.0 µM; ATP 120 µM
SIK1 (human) = SIK1 (human) (UniProt P57059); assay: as above; conditions: compound 1.0 µM; ATP 45 µM
CDK9 CCNT1 (human) = CDK9 CCNT1 (human) (UniProt P50750+O60563); assay: as above; conditions: compound 1.0 µM; ATP 45 µM
PAK7 (human) = PAK7 (human) (UniProt Q9P286); assay: as above; conditions: compound 1.0 µM; ATP 15 µM
[6] = system: EGFR (human), P00533 [L861Q]; assay: as above; conditions: compound 1.0 µM; ATP 10 µM
CDK6 CCND3 (human) = CDK6 CCND3 (human) (UniProt P30281+Q00534); assay: as above; conditions: compound 1.0 µM; ATP 200 µM
STK33 (human) = STK33 (human) (UniProt Q9BYT3); assay: as above; conditions: compound 1.0 µM; ATP 155 µM
FGFR4 (human) = FGFR4 (human) (UniProt P22455); assay: as above; conditions: compound 1.0 µM; ATP 155 µM
ERBB4 (human) = ERBB4 (human) (UniProt Q15303); assay: as above; conditions: compound 1.0 µM; ATP 15 µM
PAK6 (human) = PAK6 (human) (UniProt Q9NQU5); assay: as above; conditions: compound 1.0 µM; ATP 10 µM
PRKD1 (human) = PRKD1 (human) (UniProt Q15139); assay: as above; conditions: compound 1.0 µM; ATP 45 µM
STK17A (human) = STK17A (human) (UniProt Q9UEE5); assay: as above; conditions: compound 1.0 µM; ATP 10 µM
PRKCB2 (human) = PRKCB2 (human) (UniProt P05771); assay: as above; conditions: compound 1.0 µM; ATP 10 µM
[7] = system: MET (human), P08581 [M1250T]; assay: Caliper, Mobility shift assay off-chip

Structure (SMILES): CN(C)S(=O)(=O)Nc1ccc2ccc3ncc(-c4cnn(C)c4)cc3c(=O)c2c1
- residual activity (HIPK1 (human)): 116%
- residual activity (EPHA1 (human)): 65%
- residual activity (CSNK2A2 (human)): 123%
- residual activity [1]: 94%
- residual activity (NTRK2 (human)): 15%
- residual activity (PRKCG (human)): 101%
- residual activity (CSK (human)): 85%
- residual activity (NEK11 (human)): 118%
- residual activity (NEK3 (human)): 104%
- residual activity (DAPK1 (human)): 90%
- residual activity (CDC42BPB (human)): 94%
- residual activity [2]: 96%
- residual activity (BRSK1 (human)): 74%
- residual activity [3]: 7%
- residual activity (STK11 (human)): 134%
- residual activity (FER (human)): 56%
- residual activity (CDK5 CDK5R1 p25 (human)): 88%
- residual activity [4]: 55%
- residual activity (MAPK3 (human)): 120%
- residual activity (CDK7 CCNH MNAT1 (human)): 101%
- residual activity (NEK6 (human)): 93%
- residual activity (IKBKB (human)): 98%
- residual activity [5]: 81%
- residual activity (CDC42BPA (human)): 107%
- residual activity (EPHA3 (human)): 96%
- residual activity (SIK1 (human)): 87%
- residual activity (CDK9 CCNT1 (human)): 107%
- residual activity (PAK7 (human)): 101%
- residual activity [6]: 97%
- residual activity (CDK6 CCND3 (human)): 108%
- residual activity (STK33 (human)): 90%
- residual activity (FGFR4 (human)): 88%
- residual activity (ERBB4 (human)): 84%
- residual activity (PAK6 (human)): 109%
- residual activity (PRKD1 (human)): 93%
- residual activity (STK17A (human)): 0%
- residual activity (PRKCB2 (human)): 105%

Structure (SMILES): O=C(CCc1ccc2ccc3ncc(C4CCNCC4)cc3c(=O)c2c1)NCc1ccccn1
- inhibition ([7]; compound 0.1 µM): 87%
- inhibition ([7]; compound 1.0 µM): 98.4%
